Results published in patent publication US11802127B2, “3,4-dihydro-2,7-naphthyridine-1,6(2H,7H)-diones as MEK inhibitors” (Pfizer Inc., priority 2021, dated 2023).
Structures can show the parent of a compound that is named as a salt.

Tests used:
[1] = tested on: ERK1/2(Thr202/Tyr204) phosphorylation (MEK-dependent) in A375 cells; assay: Cellular Phospho-p44/42 MAPK (Erk1/2) (Thr202/Tyr204) Assay; type: cell-based; settings: Homo sapiens, A-375, 1-hour incubation, pERK1/2 (Thr202/Tyr204) In-Cell Western normalized to GAPDH
Method in brief: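 A375 cells exposed 1 h to 10-point 1:3 dilutions (top 20–1 μM, 0.5% DMSO), then fixed and stained for pERK1/2 (Thr202/Tyr204) by In-Cell Western. Signal normalized to GAPDH per well; DMSO and 1 μM reference inhibitor define 0 and 100% inhibition.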

BCRP (hBCRP) = molecular target: T1, BCRP (hBCRP) (Homo sapiens, UniProt Q9UNQ0); assay: Efflux ratio in BCRP transfected MDCKII canine P-gp knockout cells; type: in vitro ADME; settings: Papp(B−A)/Papp(A−B), read-out: Efflux ratio MDCKII-hBCRP knock-in,canine pg-P KO
T1 construct: expressed in transfected cells; host or cells: MDCKII (canine kidney) cells, canine P-gp knockout, transfected with BCRP
T1 sequence (Q9UNQ0 1-655): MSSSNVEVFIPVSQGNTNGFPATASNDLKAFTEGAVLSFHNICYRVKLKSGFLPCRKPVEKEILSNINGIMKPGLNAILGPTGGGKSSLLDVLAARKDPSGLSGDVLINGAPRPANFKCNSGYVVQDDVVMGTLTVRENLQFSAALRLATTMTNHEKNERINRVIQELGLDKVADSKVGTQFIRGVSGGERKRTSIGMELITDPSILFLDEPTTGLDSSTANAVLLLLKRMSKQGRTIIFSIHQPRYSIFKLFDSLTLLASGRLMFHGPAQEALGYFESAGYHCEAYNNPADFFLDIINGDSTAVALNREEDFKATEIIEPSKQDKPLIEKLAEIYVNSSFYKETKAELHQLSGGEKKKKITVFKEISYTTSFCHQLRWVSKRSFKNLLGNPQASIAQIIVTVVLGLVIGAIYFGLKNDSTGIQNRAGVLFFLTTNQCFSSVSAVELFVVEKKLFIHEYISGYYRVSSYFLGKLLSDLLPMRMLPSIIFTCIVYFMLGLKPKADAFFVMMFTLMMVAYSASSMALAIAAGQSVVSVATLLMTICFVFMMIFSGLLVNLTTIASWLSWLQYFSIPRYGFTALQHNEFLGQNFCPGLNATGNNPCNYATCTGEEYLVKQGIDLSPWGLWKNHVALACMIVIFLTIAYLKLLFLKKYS
Method in brief: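 Test article at 1 μM final (1% organic) in A→B and B→A directions across MDCKII P-gp knockout monolayers expressing BCRP, 2 h at 37° C., triplicate; lucifer yellow checked monolayer integrity. Concentrations by LC-MS/MS against labetalol internal standard; efflux ratio = Papp(B−A)/Papp(A−B).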

P-gp (MDR1) = molecular target: T2, P-gp (MDR1) (Homo sapiens, UniProt P08183); assay: Efflux ratio in MDR1 transfected LLC-PK1 cells; type: in vitro ADME; settings: pig, Papp(B−A)/Papp(A−B)
T2 construct: expressed in transfected cells; host or cells: LLC-PK1 (porcine kidney) cells transfected with MDR1
Method: (§1) Both LLC-PK1 and MDR1 transfected LLC-PK1 cells were cultured and plated according to manufacturer's recommendations with the exception that the passage media contained only 2% fetal bovine serum to extend passage time out to seven days.
(§2) Both positive and negative controls were used to assess functionality of P-gp or BCRP efflux in the assays. Stock solutions for assay controls and the test article were prepared in DMSO for final test concentrations of 10 and 1 μM, respectively. Final organic concentration in the assay was 1%. All dosing solutions contained 10 μM lucifer yellow to monitor LLC-PK1 or MDCKII cell monolayer integrity.
(§3) For the apical to basolateral determination (A to B), 75 μL of the test article in transport buffer were added to the apical side of the individual transwells and 250 μL of basolateral media, without compound or lucifer yellow, were added to each well. For the basolateral to apical determination (B to A), 250 μL of test article in transport buffer were added to each well and 75 μL transport buffer, without compound or lucifer yellow, were added to each transwell. All tests were performed in triplicate, and each compound was tested for both apical to basolateral and basolateral to apical transport. The plates were incubated for 2 hours on a Lab-Line Instruments Titer Orbital Shaker (VWR, West Chester, PA) at 50 rpm and 37° C. with 5% CO2. All culture plates were removed from the incubator and 50 μL of media were removed from the apical and basolateral portion of each well and added to 150 μL of 1 μM labetalol in 2:1 acetonitrile (acetonitrile): H2O, v/v.
(§4) The plates were read using a Molecular Devices (Sunnyvale, CA) Gemini Fluorometer to evaluate the lucifer yellow concentrations at excitation/emission wavelengths of 425/535 nm. These values were accepted when found to be below 2% for apical to basolateral and 5% basolateral to apical flux across the MDR1-transfected LLC-PK1 or BCRP-transfected MDCKII cell monolayers. The plates were sealed and the contents of each well analyzed by LC-MS/MS. The compound concentrations were determined from the ratio of the peak areas of the compound to the internal standard (labetalol) in comparison to the dosing solution.
(§5) The LC-MS/MS system was comprised of an HTS-PAL autosampler (Leap Technologies, Carrboro, NC), an HP1200 HPLC (Agilent, Palo Alto, CA), and a MDS Sciex 4000 Q Trap system (Applied Biosystems, Foster City, CA). […] The total run time, including re-equilibration, for a single injection was 1.2 minutes. Mass spectrometric detection of the analytes was accomplished using the ion spray positive mode. Analyte responses were measured by multiple reaction monitoring (MRM) of transitions unique to each compound (the protonated precursor ion and selected product ions for each test article and m/z 329 to m/z 162 for labetalol, the internal standard).
An efflux ratio is calculated from the mean apical to basolateral (A−B) Papp data and basolateral to apical (B−A) Papp data: Efflux ratio=Papp(B−A)/Papp(A−B)

[2] = MDR1 LLC-PK1 and BCRP MDCKII Permeability Assay: permeability coefficient (Papp); type: in vitro ADME; settings: MDCK, test article 1 μM, 37° C.
Method: as §1
BCRP transfected MDCKII canine P-gp knockout cell line was cultured and plated according to manufacturer's recommendations.
as §2, §3, §4, §5

T2 sequence (P08183 whole entry): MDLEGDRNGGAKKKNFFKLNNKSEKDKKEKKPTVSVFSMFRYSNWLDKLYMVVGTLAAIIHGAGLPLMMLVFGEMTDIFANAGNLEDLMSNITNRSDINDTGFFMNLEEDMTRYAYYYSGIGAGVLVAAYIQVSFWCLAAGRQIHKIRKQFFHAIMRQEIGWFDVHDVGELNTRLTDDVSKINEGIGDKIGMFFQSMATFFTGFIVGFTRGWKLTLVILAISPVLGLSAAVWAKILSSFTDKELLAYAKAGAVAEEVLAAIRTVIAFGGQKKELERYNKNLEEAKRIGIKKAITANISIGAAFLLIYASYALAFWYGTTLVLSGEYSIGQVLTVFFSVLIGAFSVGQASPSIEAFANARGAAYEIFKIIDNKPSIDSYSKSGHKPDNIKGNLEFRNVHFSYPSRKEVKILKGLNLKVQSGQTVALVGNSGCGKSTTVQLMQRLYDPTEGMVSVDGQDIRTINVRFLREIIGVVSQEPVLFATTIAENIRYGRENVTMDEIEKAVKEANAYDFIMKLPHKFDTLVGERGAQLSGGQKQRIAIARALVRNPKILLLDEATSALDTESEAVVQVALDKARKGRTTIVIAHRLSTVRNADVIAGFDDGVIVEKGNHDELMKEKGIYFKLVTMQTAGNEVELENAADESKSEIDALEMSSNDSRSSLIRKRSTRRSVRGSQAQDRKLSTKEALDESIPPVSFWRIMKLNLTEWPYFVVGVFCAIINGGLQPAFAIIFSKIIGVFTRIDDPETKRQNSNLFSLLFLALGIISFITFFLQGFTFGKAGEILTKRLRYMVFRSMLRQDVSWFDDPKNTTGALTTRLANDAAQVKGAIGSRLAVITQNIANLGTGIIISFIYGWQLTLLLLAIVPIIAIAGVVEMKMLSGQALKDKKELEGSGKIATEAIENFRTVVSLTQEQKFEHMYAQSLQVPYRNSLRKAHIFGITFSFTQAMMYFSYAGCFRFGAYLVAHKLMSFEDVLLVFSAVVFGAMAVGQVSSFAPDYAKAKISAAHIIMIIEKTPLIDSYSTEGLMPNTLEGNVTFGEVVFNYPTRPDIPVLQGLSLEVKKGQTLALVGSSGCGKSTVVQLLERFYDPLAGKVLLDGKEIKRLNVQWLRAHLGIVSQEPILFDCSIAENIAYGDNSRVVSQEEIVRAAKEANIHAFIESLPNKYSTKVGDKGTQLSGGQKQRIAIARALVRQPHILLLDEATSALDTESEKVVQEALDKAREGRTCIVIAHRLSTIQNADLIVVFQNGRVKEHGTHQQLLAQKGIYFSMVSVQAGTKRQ

Compound	efflux ratio at 2 h, 1 μM (BCRP (hBCRP))	efflux ratio at 2 h, 1 μM (P-gp (MDR1))	Papp at 2 h, 1 μM [2]	IC50 [1]
Cn1c(Nc2ccc(I)cc2F)c2c(c(Cl)c1=O)CCN(OCCO)C2=O [Example 38, 5-chloro-8-((2-fluoro-4-iodophenyl)amino)-2-(2-hydroxyethoxy)-7-methyl-3,4-dihydro-2,7-naphthyridine-1,6(2H,7H)-dione]	2.9	4.5	24.6 ×10⁻⁶ cm/s	7 nM
Cn1c(Nc2ccc(Br)cc2F)c2c(c(F)c1=O)CCN(OCCO)C2=O [Example 39, 8-((4-bromo-2-fluorophenyl)amino)-5-fluoro-2-(2-hydroxyethoxy)-7-methyl-3,4-dihydro-2,7-naphthyridine-1,6(2H,7H)-dione]	3.2	3.9	32.3 ×10⁻⁶ cm/s	62 nM
Cc1c2c(c(Nc3ccc(I)cc3F)n(C)c1=O)C(=O)N(OCCO)CC2 [Example 40, 8-((2-fluoro-4-iodophenyl)amino)-2-(2-hydroxyethoxy)-5,7-dimethyl-3,4-dihydro-2,7-naphthyridine-1,6(2H,7H)-dione]	1.9	3.6	28.4 ×10⁻⁶ cm/s	4 nM
Cn1c(Nc2ccc(Br)cc2F)c2c(c(Br)c1=O)CCN(OCCO)C2=O [Example 42, 5-bromo-8-((4-bromo-2-fluorophenyl)amino)-2-(2-hydroxyethoxy)-7-methyl-3,4-dihydro-2,7-naphthyridine-1,6(2H,7H)-dione]	3.3	2.8	29.4 ×10⁻⁶ cm/s	143 nM
CCc1ccc(Nc2c3c(c(C)c(=O)n2C)CCN(OCCO)C3=O)c(F)c1 [Example 44, 8-((4-ethyl-2-fluorophenyl)amino)-2-(2-hydroxyethoxy)-5,7-dimethyl-3,4-dihydro-2,7-naphthyridine-1,6(2H,7H)-dione]	2.7	1.1	33 ×10⁻⁶ cm/s	13 nM
Cc1c2c(c(Nc3ccc(C4CC4)cc3F)n(C)c1=O)C(=O)N(OCCO)CC2 [Example 45, 8-((4-cyclopropyl-2-fluorophenyl)amino)-2-(2-hydroxyethoxy)-5,7-dimethyl-3,4-dihydro-2,7-naphthyridine-1,6(2H,7H)-dione]	1.3	2.2	31.8 ×10⁻⁶ cm/s	20 nM
Cc1c2c(c(Nc3ccc(I)cc3F)n(C)c1=O)C(=O)NCC2 [Example 48, 8-((2-fluoro-4-iodophenyl)amino)-5,7-dimethyl-3,4-dihydro-2,7-naphthyridine-1,6(2H,7H)-dione]	1	1.4	16.2 ×10⁻⁶ cm/s	6 nM
CSc1ccc(Nc2c3c(c(C)c(=O)n2C)CCNC3=O)c(F)c1 [Example 55, 8-((2-fluoro-4-(methylthio)phenyl)amino)-5,7-dimethyl-3,4-dihydro-2,7-naphthyrdine-1,6(2H,7H)-dione]	1.4	1.4	37.4 ×10⁻⁶ cm/s	28 nM
Cc1c2c(c(Nc3ccc(C4CC4)cc3F)n(C)c1=O)C(=O)NCC2 [Example 57, 8-((4-cyclopropyl-2-fluorophenyl)amino)-5,7-dimethyl-3,4-dihydro-2,7-naphthyridine-1,6(2H,7H)-dione]	1.2	0.9	31.8 ×10⁻⁶ cm/s	94 nM

Continued, in another order:

efflux ratio at 2 h, 1 μM (BCRP (hBCRP))	efflux ratio at 2 h, 1 μM (P-gp (MDR1))	Papp at 2 h, 1 μM [2]	Compound	IC50 [1]
1	1.4	39.3 ×10⁻⁶ cm/s	Cn1c(Nc2ccc(I)cc2F)c2c(cc1=O)CCNC2=O [Example 49, 8-((4-iodo-2-fluorophenyl)amino)-7-methyl-3,4-dihydro-2,7-naphthyridine-1,6(2H,7H)-dione trifluoroacetate]	2 nM
1.3	1.2	36.7 ×10⁻⁶ cm/s	CSc1ccc(Nc2c3c(cc(=O)n2C)CCNC3=O)c(F)c1 [Example 50, 8-((2-fluoro-4-(methylthio)phenyl)amino)-7-methyl-3,4-dihydro-2,7-naphthyridine-1,6(2H,7H)-dione trifluoroacetate]	12 nM
1.2	1.2	41.2 ×10⁻⁶ cm/s	CCc1ccc(Nc2c3c(cc(=O)n2C)CCNC3=O)c(F)c1 [Example 51, 8-((4-ethyl-2-fluorophenyl)amino)-7-methyl-3,4-dihydro-2,7-naphthyridine-1,6(2H,7H)-dione]	26 nM
1.2	1.3	36.8 ×10⁻⁶ cm/s	Cn1c(Nc2ccc(C3CC3)cc2F)c2c(cc1=O)CCNC2=O [Example 52, 8-((4-cyclopropyl-2-fluorophenyl)amino)-7-methyl-3,4-dihydro-2,7-naphthyridine-1,6(2H,7H)-dione]	30 nM
1.8	1.1	36.9 ×10⁻⁶ cm/s	Cn1c(Nc2ccc(OC(F)F)cc2F)c2c(cc1=O)CCNC2=O [Example 53, 8-((4-(difluoromethoxy)-2-fluorophenyl)amino)-7-methyl-3,4-dihydro-2,7-naphthyridine-1,6(2H,7H)-dione]	30 nM
1.1	0.8	32.1 ×10⁻⁶ cm/s	CCc1ccc(Nc2c3c(c(C)c(=O)n2C)CCNC3=O)c(F)c1 [Example 56, 8-((4-ethyl-2-fluorophenyl)amino)-5,7-dimethyl-3,4-dihydro-2,7-naphthyridine-1,6(2H,7H)-dione]	56 nM
